Measured values as given in ChEMBL document CHEMBL1148292 (J Med Chem, 2004).
Several values for one entry are separate records, joined by “and”; a condition that tells them apart may be missing. Identical values can stand only once.

Legend:
Adenosine receptor A1 = molecular target: T1, Adenosine receptor A1 (Homo sapiens, UniProt P30542); assay: Displacement of specific [3H]DPCPX binding at human adenosine A1 receptor expressed in CHO cells; type: cell-based
T1 sequence (P30542 whole entry): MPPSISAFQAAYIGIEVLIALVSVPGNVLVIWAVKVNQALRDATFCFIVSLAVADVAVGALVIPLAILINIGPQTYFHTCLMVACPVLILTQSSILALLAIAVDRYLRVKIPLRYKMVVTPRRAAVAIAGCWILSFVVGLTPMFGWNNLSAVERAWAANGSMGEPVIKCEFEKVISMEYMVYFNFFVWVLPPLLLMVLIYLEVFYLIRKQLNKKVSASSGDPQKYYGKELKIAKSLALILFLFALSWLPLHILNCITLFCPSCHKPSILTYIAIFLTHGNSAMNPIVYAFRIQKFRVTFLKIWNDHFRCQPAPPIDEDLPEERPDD

Adenosine receptor A2a = Adenosine receptor A2a (Homo sapiens, UniProt P29274); assay: Binding affinity of compound for displacement of specific [3H]ZM-241385 binding at human adenosine A2A receptor expressed in CHO cells; type: cell-based
Sequence of Adenosine receptor A2a (P29274 whole entry): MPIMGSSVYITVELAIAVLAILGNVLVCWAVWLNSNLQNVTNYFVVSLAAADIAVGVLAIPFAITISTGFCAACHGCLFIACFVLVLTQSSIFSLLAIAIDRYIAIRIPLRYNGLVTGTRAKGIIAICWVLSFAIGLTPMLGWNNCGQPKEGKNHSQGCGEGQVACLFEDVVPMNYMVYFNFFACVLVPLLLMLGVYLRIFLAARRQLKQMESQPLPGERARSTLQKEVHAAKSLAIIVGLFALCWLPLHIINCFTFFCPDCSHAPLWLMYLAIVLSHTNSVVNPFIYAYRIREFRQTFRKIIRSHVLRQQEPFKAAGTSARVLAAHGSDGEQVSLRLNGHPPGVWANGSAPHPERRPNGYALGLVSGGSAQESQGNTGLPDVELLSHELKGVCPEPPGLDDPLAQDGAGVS

Adenosine receptor A2b [1] = molecular target: T2, Adenosine receptor A2b (Homo sapiens, UniProt P29275); assay: Binding affinity of compound for displacement of specific [3H]- DPCPX binding at human A2B receptors expressed in HEK293 cells; type: cell-based
T2 sequence (P29275 whole entry): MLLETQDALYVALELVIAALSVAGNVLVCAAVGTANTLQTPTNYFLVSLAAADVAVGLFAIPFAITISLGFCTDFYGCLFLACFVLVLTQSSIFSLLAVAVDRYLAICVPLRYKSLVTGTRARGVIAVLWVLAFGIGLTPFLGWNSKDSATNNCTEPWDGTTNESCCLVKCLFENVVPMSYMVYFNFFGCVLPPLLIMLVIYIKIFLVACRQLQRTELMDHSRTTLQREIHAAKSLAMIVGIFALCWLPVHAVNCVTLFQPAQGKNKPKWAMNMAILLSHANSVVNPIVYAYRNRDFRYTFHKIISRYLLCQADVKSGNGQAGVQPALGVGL

Adenosine receptor A3 = molecular target: T3, Adenosine receptor A3 (Homo sapiens, UniProt P0DMS8); assay: Binding affinity of compound for displacement of specific [3H]MRE3008-F20 binding at human A3 receptors expressed in CHO cells; type: cell-based
T3 sequence (P0DMS8 whole entry): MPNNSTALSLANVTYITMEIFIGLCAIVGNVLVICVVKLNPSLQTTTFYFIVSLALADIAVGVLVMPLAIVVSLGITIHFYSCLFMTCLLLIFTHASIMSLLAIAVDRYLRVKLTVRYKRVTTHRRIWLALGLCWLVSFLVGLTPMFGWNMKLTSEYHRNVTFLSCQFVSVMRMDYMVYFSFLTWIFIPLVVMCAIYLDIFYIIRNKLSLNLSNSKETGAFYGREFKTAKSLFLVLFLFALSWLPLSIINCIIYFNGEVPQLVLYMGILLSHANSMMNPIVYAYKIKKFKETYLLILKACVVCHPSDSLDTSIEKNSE

Adenosine receptor A2b [2] = molecular target: T2, Adenosine receptor A2b; assay: Binding affinity of compound for displacement of [3H]DPCPX binding in HEK293 membranes expressing human A2B adenosine receptors
Adenosine receptor A2b [3] = molecular target: T2, Adenosine receptor A2b; assay: Inhibitory activity against cAMP production in CHO cells transfected with human A2B adenosine receptor; type: functional, cell-based

Ki (Adenosine receptor A1) [µM]	Ki (Adenosine receptor A2a) [µM]	Ki (Adenosine receptor A3) [µM]	Ki (Adenosine receptor A2b [2])	Structure (SMILES)	also measured
0.065	> 1	> 1		CCCn1c(=O)c2nc(-c3ccc(N)cc3)[nH]c2n(CCC)c1=O	Ki (Adenosine receptor A2b [1]): 0.009 µM
			0.01 µM	CCCn1c(=O)c2[nH]c(-c3cc(OCC(=O)Nc4ccc(C)c(C)c4)nn3C)nc2n(CCC)c1=O	IC50 (Adenosine receptor A2b [3]): 0.04 µM
			0.028 µM	CCCn1c(=O)c2[nH]c(-c3cc(NC(=O)Cc4ccc(Cl)cc4)nn3C)nc2n(CCC)c1=O	
> 1				CCCn1c(=O)c2[nH]c(-c3cc(OCC(=O)Nc4ccc(OC)c(OC)c4)no3)nc2n(CCC)c1=O	
> 1				CCCn1c(=O)c2[nH]c(-c3cc(NC(=O)Cc4ccc(N(C)C)cc4)nn3C)nc2n(CCC)c1=O	
> 1				CCCn1c(=O)c2[nH]c(-c3cc(OCC(=O)Nc4ccc(F)cc4)no3)nc2n(CCC)c1=O	
			0.019 µM	CCCn1c(=O)c2[nH]c(-c3cc(OCC(=O)Nc4ccc(C)cc4)nn3C)nc2n(CCC)c1=O	IC50 (Adenosine receptor A2b [3]): 0.075 µM
> 1				CCCn1c(=O)c2[nH]c(-c3cc(NC(=O)CCC(=O)O)nn3C)nc2n(CCC)c1=O	
> 1			0.108 µM	CCCn1c(=O)c2[nH]c(-c3ccc(OCC(=O)Nc4ccc(I)cc4)nc3)nc2n(CCC)c1=O	IC50 (Adenosine receptor A2b [3]): 0.477 µM
> 1			0.032 µM	CCCn1c(=O)c2[nH]c(-c3cc(OCC(=O)Nc4ccc(C(=O)OCC)cc4)nn3C)nc2n(CCC)c1=O	IC50 (Adenosine receptor A2b [3]): 0.12 µM
> 1				CCCn1c(=O)c2[nH]c(-c3ccc(OCC(=O)Nc4ccc(I)cc4)nn3)nc2n(CCC)c1=O	
> 1	> 1		0.038 µM	CCCn1c(=O)c2[nH]c(-c3cc(NC(=O)Cc4ccc(OC)c(OC)c4)nn3C)nc2n(CCC)c1=O	
> 1			0.036 µM	CCCn1c(=O)c2[nH]c(-c3cc(OCC(=O)Nc4ccc(C(=O)O)cc4)nn3C)nc2n(CCC)c1=O	IC50 (Adenosine receptor A2b [3]): 0.115 µM
> 1				CCCn1c(=O)c2[nH]c(-c3cc(NC(=O)Cc4ccc([N+](=O)[O-])cc4)nn3C)nc2n(CCC)c1=O	
> 1			0.024 µM	C=CCn1c(=O)c2[nH]c(-c3cc(OCC(=O)N4CCN(c5ccccc5)CC4)nn3C)nc2n(CC=C)c1=O	IC50 (Adenosine receptor A2b [3]): 0.081 µM
> 1	> 1			CCCn1c(=O)c2[nH]c(-c3cc(NC(=O)Cc4ccc(O)c(OC)c4)nn3C)nc2n(CCC)c1=O	
	> 1	> 1		CCCn1c(=O)c2[nH]c(-c3cc(OCC(=O)Nc4ccc(C(C)CC)cc4)nn3C)nc2n(CCC)c1=O (configuration not stated)	
1.36	> 1	> 1		CCCn1c(=O)c2nc(-c3ccc(NC(=O)Nc4cccc(Cl)c4)cc3)[nH]c2n(CCC)c1=O	Ki (Adenosine receptor A2b [1]): 0.11 µM
> 1				CCCn1c(=O)c2[nH]c(-c3cc(NC(=O)Cc4ccc(O)cc4)nn3C)nc2n(CCC)c1=O	
0.26			0.012 µM and 0.015 µM	CCCn1c(=O)c2[nH]c(-c3cc(OCC(=O)N4CCN(c5ccccc5)CC4)nn3C)nc2n(CCC)c1=O	Ki (Adenosine receptor A2b [1]): 0.012 µM; IC50 (Adenosine receptor A2b [3]): 0.07 µM and 0.065 µM
> 1	> 1	> 1		CCCn1c(=O)c2[nH]c(-c3cc(OCC(=O)Nc4ccc(C)cn4)nn3C)nc2n(CCC)c1=O	Ki (Adenosine receptor A2b [1]): 1.01 µM
> 1	> 1	> 1		CCCn1c(=O)c2[nH]c(-c3ccc(NC(=O)Cc4ccccc4)cc3)nc2n(CCC)c1=O	Ki (Adenosine receptor A2b [1]): 0.649 µM
1.73	> 1	> 1		CCCn1c(=O)c2[nH]c(-c3ccc(NC(=O)Cc4ccc(OC)c(OC)c4)cc3)nc2n(CCC)c1=O	Ki (Adenosine receptor A2b [1]): 0.095 µM
				CCCn1c(=O)c2[nH]c(-c3cc(NC(=O)Cc4ccc(F)c(F)c4)nn3C)nc2n(CCC)c1=O	Ki (Adenosine receptor A2b [1]): 0.078 µM
> 1	> 1	> 1		Cn1nc(-c2nc3c([nH]2)c(=O)n(C)c(=O)n3C)cc1N	Ki (Adenosine receptor A2b [1]): 0.175 µM

Ki (Adenosine receptor A1) [µM]	Ki (Adenosine receptor A2a) [µM]	Ki (Adenosine receptor A3) [µM]	Ki (Adenosine receptor A2b [2])	Structure (SMILES)	also measured
			0.02 µM	CCCn1c(=O)c2[nH]c(-c3cc(OCC(=O)Nc4ccc(Br)cc4)nn3C)nc2n(CCC)c1=O	
> 1				CCCn1c(=O)c2[nH]c(-c3cc(NC(=O)[C@@H](C)c4ccccc4)nn3C)nc2n(CCC)c1=O	
	> 1	> 1		CCCn1c(=O)c2[nH]c(-c3cc(OCC(=O)Nc4ccncc4)nn3C)nc2n(CCC)c1=O	
> 1			0.012 µM	CCCn1c(=O)c2[nH]c(-c3cc(OCC(=O)Nc4ccc(OC)c(OC)c4)nn3C)nc2n(CCC)c1=O	IC50 (Adenosine receptor A2b [3]): 0.046 µM
			0.05 µM	CCCn1c(=O)c2[nH]c(-c3cc(NC(=O)Cc4cccc(F)c4)nn3C)nc2n(CCC)c1=O	IC50 (Adenosine receptor A2b [3]): 0.16 µM
> 1	> 1	> 1		CCCn1c(=O)c2c(nc(-c3ccc(N)cc3)n2C)n(CCC)c1=O	Ki (Adenosine receptor A2b [1]): 0.516 µM
> 1	> 1	> 1		CCCn1c(=O)c2[nH]c(-c3cc(OCC(=O)Nc4ccc(C(C)=O)cc4)nn3C)nc2n(CCC)c1=O	
> 1				CCCn1c(=O)c2[nH]c(-c3cc(NC(=O)Cc4ccc(CC(C)C)cc4)nn3C)nc2n(CCC)c1=O	
> 1				CCCn1c(=O)c2[nH]c(-c3cc(OCC(=O)Nc4ccc(OC)cc4)no3)nc2n(CCC)c1=O	
> 1				CCCn1c(=O)c2[nH]c(-c3cc(NC(=O)[C@H](C)c4ccccc4)nn3C)nc2n(CCC)c1=O	
> 1				CCCn1c(=O)c2[nH]c(-c3cc(OCC(=O)N4CCN(c5ccc(F)cc5)CC4)nn3C)nc2n(CCC)c1=O	
				CCCn1c(=O)c2[nH]c(-c3cc(NC(=O)Cc4ccc(C(F)(F)F)cc4)nn3C)nc2n(CCC)c1=O	Ki (Adenosine receptor A2b [1]): 0.13 µM
	> 1	> 1		CC(C)Cn1c(=O)c2nc(-c3cc(OCC(=O)Nc4ccc(F)cc4)nn3C)[nH]c2n(CC(C)C)c1=O	
	> 1	> 1		CCCn1c(=O)c2[nH]c(-c3cc(N)n(C)n3)nc2n(CCC)c1=O	
> 1				CCCn1c(=O)c2[nH]c(-c3cc(NC(=O)Cc4cccc(OC)c4)nn3C)nc2n(CCC)c1=O	
			0.013 µM	CCCn1c(=O)c2[nH]c(-c3cc(NC(=O)Cc4ccc(OCc5ccccc5C(F)(F)F)cc4)nn3C)nc2n(CCC)c1=O	
			0.035 µM	CCCn1c(=O)c2[nH]c(-c3cc(NC(=O)Cc4ccccc4)nn3C)nc2n(CCC)c1=O	
> 1				CCCn1c(=O)c2[nH]c(-c3cc(C(=O)O)n(C)n3)nc2n(CCC)c1=O	
> 1				Cn1nc(NC(=O)Cc2ccccc2)cc1-c1nc2c([nH]1)c(=O)n(C)c(=O)n2C	
> 1	> 1	> 1	0.047 µM	CCCn1c(=O)c2nc(-c3cc(OCC(=O)Nc4ccc5c(c4)OCO5)no3)[nH]c2n(CCC)c1=O	Ki (Adenosine receptor A2b [1]): 0.047 µM; IC50 (Adenosine receptor A2b [3]): 0.14 µM
> 1			0.056 µM	CCCn1c(=O)c2[nH]c(-c3cc(NC(=O)Cc4ccc(OCc5ccccc5)cc4)nn3C)nc2n(CCC)c1=O	IC50 (Adenosine receptor A2b [3]): 0.185 µM
> 1				CCCn1c(=O)c2[nH]c(-c3cc(OCC(=O)Nc4ccc(N5CCOCC5)cc4)nn3C)nc2n(CCC)c1=O	
1.17	> 1	> 1		CCCn1c(=O)c2[nH]c(-c3ccc(NC(=O)Nc4cccc(OC)c4)cc3)nc2n(CCC)c1=O	Ki (Adenosine receptor A2b [1]): 0.058 µM
			0.016 µM	CCCn1c(=O)c2[nH]c(-c3cc(OCC(=O)Nc4ccc(Cl)c(Cl)c4)nn3C)nc2n(CCC)c1=O	IC50 (Adenosine receptor A2b [3]): 0.06 µM
> 1	> 1	> 1		CCCn1c(=O)c2[nH]c(-c3cc(NC(=O)Cc4cc(OC)c(OC)c(OC)c4)nn3C)nc2n(CCC)c1=O	Ki (Adenosine receptor A2b [1]): > 1 µM

Structure (SMILES)	Ki (Adenosine receptor A1) [µM]	Ki (Adenosine receptor A2a) [µM]	Ki (Adenosine receptor A3) [µM]	Ki (Adenosine receptor A2b [2])	also measured
CCCn1c(=O)c2[nH]c(-c3cc(NC(=O)Cc4ccc5c(c4)OCO5)nn3C)nc2n(CCC)c1=O		> 1		0.018 µM	
CCCn1c(=O)c2[nH]c(-c3cc(OCC(=O)N4CCN(Cc5ccccc5)CC4)nn3C)nc2n(CCC)c1=O		> 1	> 1		
CCCn1c(=O)c2[nH]c(-c3cc(OCC(=O)N4CCN(C)CC4)nn3C)nc2n(CCC)c1=O	> 1			0.076 µM	Ki (Adenosine receptor A1; cho): > 1 µM; Ki (Adenosine receptor A2b [1]): 0.076 µM; IC50 (Adenosine receptor A2b [3]): 0.322 µM
CCCn1c(=O)c2[nH]c(-c3cc(NC(=O)Cc4ccccc4)n(C)n3)nc2n(CCC)c1=O		> 1	> 1	0.034 µM	
